Measured values from patent US6676932B2, “Ultraviolet absorbent, photostabilizer, ultraviolet ray-absorbing composition, photostabilized composition and external preparation for skin” (Shiseido Co., Ltd., priority 2001, dated 2004).

Assays:
skin [1] = assay: Test of skin irritation: continuous application test (Test Example 3 i); type: in vivo, human; conditions: 10 wt % ultraviolet absorbent, twice daily for 4 weeks
Method: (§1) The same samples as in the Test Example 2 were used (at a 10 wt % amount of an ultraviolet absorbent).
Continuous application test was carried out for 20 healthy subjects per one group. An appropriate amount of each of the samples was coated twice daily for 4 weeks. The effects were assessed according to the following assessment standards.
Mean score was calculated for the determination of the effect on the basis of the following standards.
(§2) ◯: mean score of more than 0 to less than 1.
(§3) Δ: mean score of 1 or more to less than 2.
(§4) x: mean score of 2 or more.

skin [2] = assay: Test of skin irritation: 24-hour occlusion patch test (Test Example 3 ii); type: in vivo, human; conditions: 10 wt % ultraviolet absorbent
Method: as §1
20 Healthy male and female volunteers per one group were carried out in a 24-hour occlusion patch test, using a fin chamber on forearm curves. Assessment was done on the basis of the following assessment standards.
Mean score was determined for the assessment on the basis of the following standards.
as §2, §3, §4

Oc1cc(N2CCOCC2)cnn1 [3-Hydroxy-5-morpholinopyridazine, 3-hydroxy-5-morpholinopyridazine]
⊚ (mean score of 0): Determination (skin reaction, continuous application test) (skin [1]; cream) | Determination (skin reaction, continuous application test) (skin [1]; lotion) | Determination (skin reaction, patch test) (skin [2]; cream) | Determination (skin reaction, patch test) (skin [2]; lotion)

Oc1nncc(N2CCCCC2)c1N1CCCCC1 [4,5-Dipiperidino-3-hydroxypyridazine]
⊚ (mean score of 0): Determination (skin reaction, continuous application test) (skin [1]; cream) | Determination (skin reaction, continuous application test) (skin [1]; lotion) | Determination (skin reaction, patch test) (skin [2]; cream) | Determination (skin reaction, patch test) (skin [2]; lotion)
